Patent publication US20220402948A1, “EGFR INHIBITOR, COMPOSITION AND PREPARATION METHOD THEREFOR” (BETTA PHARMACEUTICALS CO., LTD., priority 2019, published 2022)

Legend:
A431 = A431 cell proliferation assay (CellTiter Glo, 72 hours); type: cell-based; settings: Homo sapiens, A-431, 72 h, cell proliferation, A431, 72 hours, Table 2; read-out: A431 IC50
Outline: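 A431 cells (2000/well) exposed 72 h to compound at 1000 nM down to 0.2 nM in 3-fold steps, 0.1% DMSO (0.5% for some series). Viability by CellTiter-Glo luminescence; IC50 by four-parameter nonlinear regression.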

EGFRΔ19del/T790M/C797S = EGFRΔ19del/T790M/C797S (Homo sapiens, UniProt P00533, T790M/C797S, form not given); experiment: EGFR Δ19del/T790M/C797S kinase test (mobility variation analysis, Caliper EZ Reader); type: biochemical; settings: kinase enzymatic activity, Table 1
Chain of EGFRΔ19del/T790M/C797S (P00533 with tags, fused parts or gaps DEL746-750/T790M/C797S, form open): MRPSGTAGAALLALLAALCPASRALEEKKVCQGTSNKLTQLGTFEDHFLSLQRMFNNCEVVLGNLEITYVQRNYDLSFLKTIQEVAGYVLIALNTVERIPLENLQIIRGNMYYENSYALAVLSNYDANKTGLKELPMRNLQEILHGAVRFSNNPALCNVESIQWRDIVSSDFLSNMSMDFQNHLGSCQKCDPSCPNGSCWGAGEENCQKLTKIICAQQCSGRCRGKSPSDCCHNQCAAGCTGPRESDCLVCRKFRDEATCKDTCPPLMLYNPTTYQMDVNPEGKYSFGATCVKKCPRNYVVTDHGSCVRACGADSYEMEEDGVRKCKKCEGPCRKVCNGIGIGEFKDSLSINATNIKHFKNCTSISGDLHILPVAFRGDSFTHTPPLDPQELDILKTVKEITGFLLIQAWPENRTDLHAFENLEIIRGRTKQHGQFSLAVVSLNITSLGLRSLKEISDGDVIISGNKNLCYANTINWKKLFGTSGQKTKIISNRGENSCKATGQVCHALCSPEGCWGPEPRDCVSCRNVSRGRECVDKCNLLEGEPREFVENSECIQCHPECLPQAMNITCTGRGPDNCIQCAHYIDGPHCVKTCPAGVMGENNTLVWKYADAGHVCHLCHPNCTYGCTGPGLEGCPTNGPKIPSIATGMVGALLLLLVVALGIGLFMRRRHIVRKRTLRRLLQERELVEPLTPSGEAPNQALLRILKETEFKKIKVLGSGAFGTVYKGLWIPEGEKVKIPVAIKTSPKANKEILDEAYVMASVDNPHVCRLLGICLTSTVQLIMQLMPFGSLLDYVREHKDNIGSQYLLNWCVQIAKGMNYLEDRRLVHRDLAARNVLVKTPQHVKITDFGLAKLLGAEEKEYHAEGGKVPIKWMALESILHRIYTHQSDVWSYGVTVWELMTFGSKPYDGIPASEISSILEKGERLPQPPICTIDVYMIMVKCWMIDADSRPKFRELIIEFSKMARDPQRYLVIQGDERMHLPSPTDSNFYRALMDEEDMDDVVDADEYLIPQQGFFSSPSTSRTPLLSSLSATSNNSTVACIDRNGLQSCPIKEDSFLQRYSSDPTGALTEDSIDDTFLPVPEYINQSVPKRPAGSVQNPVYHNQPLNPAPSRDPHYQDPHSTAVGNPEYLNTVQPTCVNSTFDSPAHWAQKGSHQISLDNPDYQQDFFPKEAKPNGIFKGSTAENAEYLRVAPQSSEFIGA
Outline: (§1)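 Kinase pre-incubated with compound 10 minutes at room temperature, then ATP plus peptide substrate added; substrate conversion read by mobility shift after stop solution. Percent inhibition normalized to no-compound and no-enzyme controls; IC50 from variable-slope log(inhibitor) fit.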

[1] = molecular target: Ba/F3-EGFR wild-type cell line (Homo sapiens, UniProt P00533); experiment: Ba/F3-EGFR wild-type cell proliferation assay (CellTiter Glo, 72 hours); type: cell-based; settings: Table 2, read-out: EGFR WT IC50
Outline: (§2)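 Ba/F3 cells stably overexpressing wild-type EGFR or EGFR Δ19del/T790M/C797S were seeded at 2000 cells/well and incubated 72 h with compound. Viability was read by CellTiter-Glo luminescence, and IC50 came from a four-parameter logistic fit of signal against log concentration.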

EGFR WT = EGFR WT (Homo sapiens, UniProt P00533); experiment: EGFR WT kinase test (mobility variation analysis, Caliper EZ Reader); type: biochemical; settings: kinase enzymatic activity, Table 1
Chain of EGFR WT (P00533 25-1210): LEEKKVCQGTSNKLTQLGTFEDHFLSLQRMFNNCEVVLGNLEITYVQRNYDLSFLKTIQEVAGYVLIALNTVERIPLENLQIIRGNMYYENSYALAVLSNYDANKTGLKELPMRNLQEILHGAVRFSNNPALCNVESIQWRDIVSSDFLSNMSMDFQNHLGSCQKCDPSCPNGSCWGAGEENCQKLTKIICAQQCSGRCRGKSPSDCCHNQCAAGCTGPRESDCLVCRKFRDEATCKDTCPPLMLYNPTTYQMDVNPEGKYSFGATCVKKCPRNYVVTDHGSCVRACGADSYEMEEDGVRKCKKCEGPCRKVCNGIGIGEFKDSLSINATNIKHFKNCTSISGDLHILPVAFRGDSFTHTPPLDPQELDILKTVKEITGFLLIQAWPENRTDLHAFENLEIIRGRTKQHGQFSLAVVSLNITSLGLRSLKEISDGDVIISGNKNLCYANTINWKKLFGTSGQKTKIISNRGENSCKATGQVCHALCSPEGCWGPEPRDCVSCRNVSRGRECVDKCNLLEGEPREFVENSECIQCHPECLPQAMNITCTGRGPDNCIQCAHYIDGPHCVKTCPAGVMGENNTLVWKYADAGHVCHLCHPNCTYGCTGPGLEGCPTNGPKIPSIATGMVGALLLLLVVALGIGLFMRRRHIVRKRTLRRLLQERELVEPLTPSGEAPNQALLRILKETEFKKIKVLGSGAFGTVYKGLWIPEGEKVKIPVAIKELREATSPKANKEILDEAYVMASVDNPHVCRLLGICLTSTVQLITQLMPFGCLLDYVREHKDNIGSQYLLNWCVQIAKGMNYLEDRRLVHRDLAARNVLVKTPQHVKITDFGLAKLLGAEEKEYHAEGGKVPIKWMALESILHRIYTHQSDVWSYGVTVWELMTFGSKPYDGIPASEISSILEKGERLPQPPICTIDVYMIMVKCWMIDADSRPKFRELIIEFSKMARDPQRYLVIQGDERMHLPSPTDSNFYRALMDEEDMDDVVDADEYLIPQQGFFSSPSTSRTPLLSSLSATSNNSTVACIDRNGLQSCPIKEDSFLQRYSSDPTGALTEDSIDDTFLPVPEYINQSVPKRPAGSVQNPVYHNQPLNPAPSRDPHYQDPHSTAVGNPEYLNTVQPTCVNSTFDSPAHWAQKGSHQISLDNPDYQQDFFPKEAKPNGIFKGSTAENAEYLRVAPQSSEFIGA
Outline: as §1

[2] = molecular target: Ba/F3 cells with EGFR Δ19del/T790M/C797S mutation gene stably overexpressed (Homo sapiens, UniProt P00533, T790M/C797S, cells depend on it, form not given); experiment: Ba/F3-Δ19del/T790M/C797S cell proliferation assay (CellTiter Glo, 72 hours); type: cell-based; settings: Table 2, read-out: EGFR Δ19del/T790M/C797S IC50
Chain of Ba/F3 cells with EGFR Δ19del/T790M/C797S mutation gene stably overexpressed (P00533 with tags, fused parts or gaps DEL746-750/T790M/C797S, form open): as the sequence (P00533 with tags, fused parts or gaps DEL746-750/T790M/C797S, form open) above
Outline: as §2

IGF1R = IGF1R (Homo sapiens, UniProt P08069); experiment: IGF1R kinase test (mobility variation analysis, Caliper EZ Reader); type: biochemical; settings: kinase enzymatic activity, Table 1; read-out: EGFR IGF1R IC50
Chain of IGF1R (P08069 31-1367, species assumed): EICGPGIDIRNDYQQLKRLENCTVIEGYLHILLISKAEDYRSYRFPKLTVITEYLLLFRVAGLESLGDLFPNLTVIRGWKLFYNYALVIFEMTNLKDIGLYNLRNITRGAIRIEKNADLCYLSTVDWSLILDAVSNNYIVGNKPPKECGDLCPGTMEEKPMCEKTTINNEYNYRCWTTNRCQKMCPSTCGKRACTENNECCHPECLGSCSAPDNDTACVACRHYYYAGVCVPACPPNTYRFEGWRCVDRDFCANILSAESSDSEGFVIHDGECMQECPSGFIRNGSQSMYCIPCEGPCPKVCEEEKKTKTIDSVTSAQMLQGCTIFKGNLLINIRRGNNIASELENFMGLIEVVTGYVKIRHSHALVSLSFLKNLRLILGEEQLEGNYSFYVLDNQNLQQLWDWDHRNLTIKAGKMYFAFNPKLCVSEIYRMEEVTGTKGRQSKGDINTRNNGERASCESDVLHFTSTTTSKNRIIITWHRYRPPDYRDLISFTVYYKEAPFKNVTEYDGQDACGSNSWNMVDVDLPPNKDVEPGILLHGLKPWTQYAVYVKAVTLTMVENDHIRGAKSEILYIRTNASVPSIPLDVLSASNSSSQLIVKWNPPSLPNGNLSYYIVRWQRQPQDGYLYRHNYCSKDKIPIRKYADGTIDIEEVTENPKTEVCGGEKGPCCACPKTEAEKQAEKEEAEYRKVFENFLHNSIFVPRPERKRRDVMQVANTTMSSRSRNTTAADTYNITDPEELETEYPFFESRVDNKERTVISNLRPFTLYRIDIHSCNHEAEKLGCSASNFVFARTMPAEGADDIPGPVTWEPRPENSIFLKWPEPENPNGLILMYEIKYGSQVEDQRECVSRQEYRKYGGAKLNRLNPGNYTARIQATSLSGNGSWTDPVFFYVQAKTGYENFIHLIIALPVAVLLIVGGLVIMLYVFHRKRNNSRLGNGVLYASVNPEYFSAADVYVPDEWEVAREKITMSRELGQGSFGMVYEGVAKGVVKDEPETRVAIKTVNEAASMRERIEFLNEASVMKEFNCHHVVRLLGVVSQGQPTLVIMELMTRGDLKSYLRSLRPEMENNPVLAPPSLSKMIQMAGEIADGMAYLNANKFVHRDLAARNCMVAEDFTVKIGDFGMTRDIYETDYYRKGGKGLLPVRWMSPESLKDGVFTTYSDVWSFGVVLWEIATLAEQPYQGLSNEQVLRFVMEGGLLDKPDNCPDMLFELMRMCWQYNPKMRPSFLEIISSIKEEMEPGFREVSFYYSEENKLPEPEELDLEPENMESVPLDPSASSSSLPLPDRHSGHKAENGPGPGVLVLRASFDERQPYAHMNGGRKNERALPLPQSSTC
Outline: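 Kinase preincubated 10 min at room temperature with compound (10-point 3-fold series, top 3000 nM), then ATP and substrate added and reacted at room temperature. Substrate conversion read by mobility-shift (Caliper EZ Reader); % inhibition vs no-enzyme and no-compound controls fitted to variable-slope curve for IC50.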

| Structure (SMILES) | IC50 (A431) | IC50 (EGFRΔ19del/T790M/C797S) | GI50 [1] | IC50 (EGFR WT) | GI50 [2] | IC50 (IGF1R) |
| --- | --- | --- | --- | --- | --- | --- |
| COc1cnn(-c2ccc(Nc3nc(Nc4cc(OC)c(N5CCOCC5)cc4C)ncc3Br)c(P(C)(C)=O)c2)c1 [Compound K-023, (2-((5-Bromo-2-((5-methoxy-2-methyl-4-morpholinophenyl)amino)pyrimidin-4-yl)amino)-5-(4-methoxy-1H-pyrazol-1-yl)phenyl)dimethylphosphine oxide] | 1280 nM | 0.2 nM | 89.5 nM | 41.5 nM | 5 nM | 136 nM |
| COc1cc(Nc2ncc(Br)c(Nc3ccc(-c4ccc(C)cn4)cc3P(C)(C)=O)n2)c(C)cc1N1CCOCC1 [Compound K-032, (2-((5-Bromo-2-((5-methoxy-2-methyl-4-morpholinophenyl)amino)pyrimidin-4-yl)amino)-5-(5-methylpyridin-2-yl)phenyl)dimethylphosphine oxide] | 1340 nM | 0.3 nM | 128 nM | 55.2 nM | 4.8 nM | 106 nM |
| CCc1cc(Nc2ncc(Br)c(Nc3ccc(-n4cc(F)cn4)cc3P(C)(C)=O)n2)c(OC)cc1N1CCC(N2CCN(C)CC2)CC1 [Compound 44, (2-((5-Bromo-2-((5-ethyl-2-methoxy-4-(4-(4-methylpiperazin-1-yl)piperidin-1-yl)phenyl)amino)pyrimidin-4-yl)amino)-5-(4-fluoro-1H-pyrazol-1-yl)phenyl)dimethylphosphine oxide] | 2380 nM | 0.2 nM | 166 nM | 11.5 nM | 9.5 nM | 124 nM |
| COc1cc(Nc2ncc(Br)c(Nc3ccc(-c4nccs4)cc3P(C)(C)=O)n2)c(C)cc1N1CCOCC1 [Compound K-024, (2-((5-Bromo-2-((5-methoxy-2-methyl-4-morpholinophenyl)amino)pyrimidin-4-yl)amino)-5-(thiazol-2-yl)phenyl)dimethylphosphine oxide] | 601 nM | 0.3 nM | 172 nM | 35 nM | 15.6 nM | 71.1 nM |
| CCc1cc(Nc2ncc(Cl)c(Nc3ccc(-c4cnn5c4CCCC5)cc3P(C)(C)=O)n2)c(OC)cc1N1CCC(N2CCN(C)CC2)CC1 [Compound K-104, (2-((5-Chloro-2-((5-ethyl-2-methoxy-4-(4-(4-methylpiperazin-1-yl)piperidin-1-yl)phenyl)amino)pyrimidin-4-yl)amino)-5-(4,5,6,7-tetrahydropyrazolo[1,5-a]pyridin-3-yl)phenyl)dimethylphosphine oxide] | 3250 nM | 0.4 nM | 204 nM | 23.1 nM | 64.2 nM | 378 nM |
| CCOc1cc(Nc2ncc(Br)c(Nc3ccc(-c4cnn(C)n4)c(F)c3P(C)(C)=O)n2)c(C)cc1N1CCOCC1 [Compound K-034, (6-((5-Bromo-2-((5-ethoxy-2-methyl-4-morpholinophenyl)amino)pyrimidin-4-yl)amino)-2-fluoro-3-(2-methyl-2H-1,2,3-triazol-4-yl)phenyl)dimethylphosphine oxide] | 1230 nM | 0.4 nM | 219 nM | 64.4 nM | 20.9 nM | 37.1 nM |
| COc1cnn(-c2ccc(Nc3nc(Nc4cc(C)c(N5CCC(N6CCCCC6)CC5)cc4OC)ncc3Br)c(P(C)(C)=O)c2)c1 [Compound K-087] | 4820 nM | 0.1 nM | 245 nM | 17.2 nM | 7.4 nM | 96.1 nM |
| COc1cc(Nc2ncc(Br)c(Nc3ccc(-c4cnc(C5CC5)cn4)cc3P(C)(C)=O)n2)c(C)cc1N1CCOCC1 [Compound K-033, (2-((5-Bromo-2-((5-methoxy-2-methyl-4-morpholinophenyl)amino)pyrimidin-4-yl)amino)-5-(5-cylopropylpyrazin-2-yl)phenyl)dimethylphosphine oxide] | 1590 nM | 0.3 nM | 63.5 nM | 55.6 nM | 6.4 nM | 121 nM |
| CCc1cc(Nc2ncc(Br)c(Nc3ccc(-n4cc(COC)cn4)cc3P(C)(C)=O)n2)c(OC)cc1N1CCC(N2CCN(C)CC2)CC1 [Compound K-090] | 2320 nM | 0.3 nM | 467 nM | 28.2 nM | 18.4 nM | 202 nM |
| CCc1cc(Nc2ncc(Br)c(Nc3ccc(-n4cc(OC)cn4)cc3P(C)(C)=O)n2)c(OC)cc1N1CCC(N2CCCCC2)CC1 [Compound K-020] | 1130 nM | 0.3 nM | 226 nM | 22 nM | 9.2 nM | 126 nM |
| CCc1cc(Nc2ncc(Br)c(Nc3ccc(-c4ccccc4)c(C)c3P(C)(C)=O)n2)c(OC)cc1N1CCC(N2CCN(C)CC2)CC1 [Compound K-050, (4-((5-Bromo-2-((5-ethyl-2-methoxy-4-(4-(4-methylpiperazin-1-yl)piperidin-1-yl)phenyl)amino)pyrimidin-4-yl)amino)-2-methyl-[1,1′-biphenyl]-3-yl)dimethylphosphine oxide] | 1030 nM | 1.1 nM | 218 nM | 12.3 nM | 20.6 nM | 121 nM |
| CCc1cc(Nc2ncc(Br)c(Nc3ccc(-c4ccccc4)cc3P(C)(C)=O)n2)c(OC)cc1N1CCC(N2CCOCC2)CC1 [Compound K-047, (4-((5-Bromo-2-((5-ethyl-2-methoxy-4-(4-morpholinopiperidin-1-yl)phenyl)amino)pyrimidin-4-yl)amino)-[1,1′-biphenyl]-3-yl)dimethylphosphine oxide] | 12600 nM | 0.8 nM | 95.6 nM | 43 nM | 29.8 nM | 217 nM |

Next, values leading:

| IC50 (A431) | IC50 (EGFRΔ19del/T790M/C797S) | GI50 [1] | IC50 (EGFR WT) | GI50 [2] | IC50 (IGF1R) | Structure (SMILES) |
| --- | --- | --- | --- | --- | --- | --- |
| 962 nM | 0.3 nM | 437 nM | 27.3 nM | 13.5 nM | 177 nM | CCc1cc(Nc2ncc(Br)c(Nc3ccc(-c4ccc(C)nn4)cc3P(C)(C)=O)n2)c(OC)cc1N1CCC(N2CCN(C)CC2)CC1 [Compound 33, (2-((5-Bromo-2-((5-ethyl-2-methoxy-4-(4-(4-methylpiperazin-1-yl)piperidin-1-yl)phenyl)amino)pyrimidin-4-yl)amino)-5-(6-methylpyridazin-3-yl)phenyl)dimethylphosphine oxide] |
| 693 nM | 0.4 nM | 52.8 nM | 17 nM | 7.2 nM | 46 nM | C#Cc1cnc(-c2ccc(Nc3nc(Nc4cc(CC)c(N5CCC(N6CCN(C)CC6)CC5)cc4OC)ncc3Br)c(P(C)(C)=O)c2)cn1 [Compound K-010, (2-((5-Bromo-2-((5-ethyl-2-methoxy-4-(4-(4-methylpiperazin-1-yl)piperidin-1-yl)phenyl)amino)pyrimidin-4-yl)amino)-5-(5-ethynylpyrazin-2-yl)phenyl)dimethylphosphine oxide] |
| 4450 nM | 0.45 nM | 81.8 nM | 28 nM | 7.4 nM | 104 nM | C#Cc1cnc(-c2ccc(Nc3nc(Nc4cc(C)c(N5CCC(N6CCN(C)CC6)CC5)cc4OC)ncc3Br)c(P(C)(C)=O)c2)cn1 [Compound K-011] |
| 2300 nM | 1.1 nM | 105 nM | 13.9 nM | 10.6 nM | 134 nM | CCc1cc(Nc2ncc(Br)c(Nc3ccc(-c4cc(C)n(C)n4)cc3P(C)(C)=O)n2)c(OC)cc1N1CCC(N2CCN(C)CC2)CC1 [Compound K-066] |
| 1930 nM | 0.96 nM | 446 nM | 12 nM | 50.3 nM | 150 nM | CCc1cc(Nc2ncc(Br)c(Nc3ccc(-c4ccc(OC)s4)cc3P(C)(C)=O)n2)c(OC)cc1N1CCC(N2CCN(C)CC2)CC1 [Compound K-072, (2-((5-Bromo-2-((5-ethyl-2-methoxy-4-(4-(4-methylpiperazin-1-yl)piperidin-1-yl)phenyl)amino)pyrimidin-4-yl)amino)-5-(5-methoxythiophen-2-yl)phenyl)dimethylphosphine oxide] |
| 1510 nM | 0.3 nM | 407 nM | 22.2 nM | 27.7 nM | 127 nM | CCc1cc(Nc2ncc(Br)c(Nc3ccc(-c4nc(Cl)cs4)cc3P(C)(C)=O)n2)c(OC)cc1N1CCC(N2CCN(C)CC2)CC1 [Compound K-073, (2-((5-Bromo-2-((5-ethyl-2-methoxy-4-(4-(4-methylpiperazin-1-yl)piperidin-1-yl)phenyl)amino)pyrimidin-4-yl)amino)-5-(4-chlorothiazol-2-yl)phenyl)dimethylphosphine oxide] |
